Our source for the IC50 values is patent publication US7932270B2 (Cytokinetics, Inc., priority 2006, dated 2011).

As usually defined, the IC50 is the concentration needed to halve the response being measured.

Molecules are shown by their SMILES.

T1 sequence (P02607 2-151): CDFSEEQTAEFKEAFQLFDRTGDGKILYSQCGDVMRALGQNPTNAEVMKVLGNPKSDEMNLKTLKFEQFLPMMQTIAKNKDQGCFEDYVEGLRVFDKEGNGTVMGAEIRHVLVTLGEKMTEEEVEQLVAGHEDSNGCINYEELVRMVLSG
T1 sequence (P10587 84-789): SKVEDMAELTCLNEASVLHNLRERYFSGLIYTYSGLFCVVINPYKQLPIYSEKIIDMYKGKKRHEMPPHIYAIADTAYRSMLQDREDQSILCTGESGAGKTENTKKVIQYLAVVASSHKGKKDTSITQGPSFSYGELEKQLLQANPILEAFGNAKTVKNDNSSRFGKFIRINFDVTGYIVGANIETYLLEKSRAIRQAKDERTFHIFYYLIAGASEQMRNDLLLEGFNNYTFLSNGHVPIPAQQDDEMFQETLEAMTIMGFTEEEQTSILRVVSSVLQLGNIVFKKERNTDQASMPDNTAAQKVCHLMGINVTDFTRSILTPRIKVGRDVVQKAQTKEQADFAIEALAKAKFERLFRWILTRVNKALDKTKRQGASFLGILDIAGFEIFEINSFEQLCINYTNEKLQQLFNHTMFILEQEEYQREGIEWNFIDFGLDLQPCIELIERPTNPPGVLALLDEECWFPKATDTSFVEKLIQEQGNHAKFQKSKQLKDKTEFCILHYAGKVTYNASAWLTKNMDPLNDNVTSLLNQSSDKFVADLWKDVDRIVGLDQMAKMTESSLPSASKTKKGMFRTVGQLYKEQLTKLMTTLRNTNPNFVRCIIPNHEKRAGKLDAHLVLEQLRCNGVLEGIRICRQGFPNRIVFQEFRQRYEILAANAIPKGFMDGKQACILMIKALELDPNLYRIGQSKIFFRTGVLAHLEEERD

The assay has as its target T1, chicken gizzard smooth muscle myosin subfragment-1 chemically crosslinked to cardiac or skeletal actin (Gallus gallus, UniProt P10587).
T1 construct: chicken gizzard smooth muscle myosin subfragment-1; from tissue; host or cells: chicken gizzard
The assay can be described thus: Smooth muscle myosin ATPase dose response assay (pyruvate kinase/horseradish peroxidase/pyruvate oxidase-coupled, amplex red fluorescence). The class given is biochemical. Particulars: read-out: IC50 Arithmetic Mean. In outline:
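Chicken gizzard myosin S1 crosslinked to cardiac or skeletal actin, titrated to a set hydrolysis rate; 0.15 mM ATP, 12 mM PIPES pH 7.00, 100 mM KCl, 2 mM MgCl2. Pyruvate kinase/pyruvate oxidase/HRP coupling with amplex red fluorescence; IC50 from 4-parameter fit.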
In the case of `CC[C@H](CNC(=O)c1cc(F)c(-c2cn[nH]c2)nc1NCCc1cccc(F)c1)NC(=O)CN` [N-((1R)-1-{[(5-fluoro-2-{[2-(3-fluorophenyl)ethyl]amino}-6-pyrazol-4-yl(3-pyridyl))carbonylamino]methyl}propyl)-2-aminoacetamide], the IC50 was 160 nM. Consider `CC(C)[C@H](CNC(=O)c1ccc(-c2ccccc2C#N)nc1NCCc1cccc(F)c1)NC(=O)CN` [N-((1R)-1-{[(6-(2-cyanophenyl)-2-{[2-(3-fluorophenyl)ethyl]amino}(3-pyridyl))carbonylamino]methyl}-2-methylpropyl)-2-aminoacetamide], for which the IC50 came out at 939 nM. Then `CC(C)[C@H](CNC(=O)c1ccc(-c2ccccc2C#N)nc1NCCc1cccc(F)c1)NC(=O)CO` [N-((1R)-1-{[(6-(2-cyanophenyl)-2-{[2-(3-fluorophenyl)ethyl]amino}(3-pyridyl))carbonylamino]methyl}-2-methylpropyl)-2-hydroxyacetamide], with 441 nM; and `CC(C)C[C@H](CNC(=O)c1ccc(-c2ccccc2C#N)nc1NCCc1cccc(F)c1)NC(=O)CN` [N-((1R)-1-{[(6-(2-cyanophenyl)-2-{[2-(3-fluorophenyl)ethyl]amino}(3-pyridyl))carbonylamino]methyl}-3-methylbutyl)-2-aminoacetamide], with 913 nM; and `CC(C)C[C@H](CNC(=O)c1ccc(-c2ccccc2C#N)nc1NCCc1cccc(F)c1)NC(=O)CO` [N-((1R)-1-{[(6-(2-cyanophenyl)-2-{[2-(3-fluorophenyl)ethyl]amino}(3-pyridyl))carbonylamino]methyl}-3-methylbutyl)-2-hydroxyacetamide], with 1170 nM. Then `N#Cc1ccccc1-c1ccc(C(=O)N[C@H](CN)C(N)=O)c(NCCc2cccc(F)c2)n1` [N-((1R)-2-amino-1-carbamoylethyl)(6-(2-cyanophenyl)-2-{[2-(3-fluorophenyl)ethyl]amino}(3-pyridyl))carboxamide], with 538 nM; and `N#Cc1ccccc1-c1ccc(C(=O)NC[C@@H](CN)NC(=O)CN)c(NCCc2cccc(F)c2)n1` [N-((1R)-2-amino-1-{[(6-(2-cyanophenyl)-2-{[2-(3-fluorophenyl)ethyl]amino}(3-pyridyl))carbonylamino]methyl}ethyl)-2-aminoacetamide], with 12600 nM; and `N#Cc1ccccc1-c1ccc(C(=O)NC[C@@H](CN)NC(=O)CO)c(NCCc2cccc(F)c2)n1` [N-((1R)-2-amino-1-{[(6-(2-cyanophenyl)-2-{[2-(3-fluorophenyl)ethyl]amino}(3-pyridyl))carbonylamino]methyl}ethyl)-2-hydroxyacetamide], with 10600 nM. Then `N#Cc1ccccc1-c1ccc(C(=O)N[C@H](CCCN)C(N)=O)c(NCCc2cccc(F)c2)n1` [N-((1R)-4-amino-1-carbamoylbutyl)(6-(2-cyanophenyl)-2-{[2-(3-fluorophenyl)ethyl]amino}(3-pyridyl))carboxamide], with 7410 nM.

`N#Cc1ccccc1-c1ccc(C(=O)N[C@H](CCCCN)C(N)=O)c(NCCc2cccc(F)c2)n1` [N-((1R)-5-amino-1-carbamoylpentyl)(6-(2-cyanophenyl)-2-{[2-(3-fluorophenyl)ethyl]amino}(3-pyridyl))carboxamide]: the IC50 was 1280 nM. For `N#Cc1ccccc1-c1ccc(C(=O)N[C@@H](CO)C(N)=O)c(NCCc2cccc(F)c2)n1` [N-((1S)-1-carbamoyl-2-hydroxyethyl)(6-(2-cyanophenyl)-2-{[2-(3-fluorophenyl)ethyl]amino}(3-pyridyl))carboxamide] the value was 1020 nM. Then `N#Cc1ccccc1-c1ccc(C(=O)NC[C@@H](CO)NC(=O)CN)c(NCCc2cccc(F)c2)n1` [N-((1S)-1-{[(6-(2-cyanophenyl)-2-{[2-(3-fluorophenyl)ethyl]amino}(3-pyridyl))carbonylamino]methyl}-2-hydroxyethyl)-2-aminoacetamide], with 249 nM.
